Columns and labels:
[1] = Stability of ^166Ho-DOTMP with and without stabilizer: radiochemical purity by ITLC, CEC, HPLC (Example 15); assay type: physicochemical; settings: ascorbic acid about 35-75 mg/mL, ambient conditions, unfrozen
Procedure: Samples of ^166Ho-DOTMP were prepared according to the procedure in Example 1 using ascorbic acid, 55 mg/mL, as the stabilizer. Identical samples were prepared without ascorbic acid. The solutions were analyzed for radiochemical purity after 1 hour, 6 hours, 10 hours, 24 hours, and 48 hours, using Instant Thin Layer Chromatography (ILTC), Cation Exchange Chromatography (CEC) and High Performance Liquid Chromatography (HPLC).

[2] = Phase II multicenter dosimetry study of ^166Ho-DOTMP: safety, biodistribution, pharmacokinetics (Example 9); assay type: in vivo, human
Procedure: A 12-patient, Phase II multicenter study was performed to further evaluate the safety, biodistribution and pharmacokinetics of ^166Ho-DOTMP. Each patient was to receive two 30 mCi tracer doses of ^166Ho-DOTMP followed, in eligible patients (those with adequate skeletal uptake parameters), by a therapy dose calculated to deliver 25 Gy to the red marrow. All patients in this study received CBI.

multiple myeloma = assay: Single patient: 40 Gy ^166Ho-DOTMP, melphalan 140 mg/m^2 (Example 12); assay type: in vivo, human
Procedure: The patient, a person with an original diagnosis of multiple myeloma, was administered a therapeutic dose of ^166Ho-DOTMP of 3875 mCi which was calculated to deliver 40 Gy to the marrow. Post ^166Ho-DOTMP, the patient received a dose of 140 mg/m^2 of melphalan (I.V.). The patients stem cells were reinfused three days after the melphalan and were followed by G-CSF for ten days.

[3] = Pharmacokinetics and patient specific dosimetry of ^166Ho-DOTMP in patients with breast cancer metastatic to bone (Example 6); assay type: in vivo, human
Procedure: Eight patients with breast cancer metastatic only to bone initially received a 30 mCi dose of ^166Ho-DOTMP for diagnostic purposes. Pharmacokinetics were assessed via whole body counting, gamma camera imaging, and urine and blood assays for the first 48 hours following injection. Patients were followed with autologous stem cell transplantation for rescue from hematologic toxicity.
Therapy doses were calculated based upon prescribed dose to the red bone marrow using the Medical Internal Radiation Dose (MIRD) technique and percentage localization in the skeleton. Appropriate S-values were provided by Oak Ridge National Laboratory. The desired target dose was 22 Gy to the red marrow calculated by the above technique for each individual. The average red marrow dose was calculated to be 1.97±0.92 cGy/mCi (range: 0.98 cGy/mCi to 3.19 cGy/mCi). Three patients proceeded to therapy, two were disqualified due to low uptake in the skeleton (≦30%; revised qualification: 15%), and three were disqualified for other reasons unrelated to the ^166Ho-DOTMP treatment.

[4] = 3875 mCi (40 Gy to marrow), melphalan 140 mg/m^2, one patient

For `O=P([O-])(O)CN1CCN(CP(=O)(O)O)CCN(CP(=O)([O-])O)CCN(CP(=O)(O)O)CC1.[166Ho]` [^166Ho-DOTMP], the “time the solution is stable, e.g., therapeutically useful” value [1] was ≥ 72 h, the route of excretion ([2]; gamma camera counting and urine PK) was “no route of excretion other than the urine” and the “localization of retained activity” value ([2]; gamma camera images) was “retained activity was localized in the skeleton”. The “hypocalcemia or associated cardiac abnormalities” value ([2]; serum calcium, ECG and Holter monitoring) was “no clinical observations of hypocalcemia or associated cardiac abnormalities were noted”, the acute toxicities ([2]; therapy dose 25 Gy to red marrow) was “no unexpected acute toxicities were noted” and the “time to engraftment after stem cell transplant” value ([2]; therapy dose calculated to deliver 25 Gy to red marrow, all patients) was ≤ 15 days. For the same compound, the “days post stem cell transplant to neutrophil engraftment (ANC >500)” value (multiple myeloma; [4]) was “Nine”, the “days post transplant to platelet engraftment (>20,000)” value (multiple myeloma; [4]) was “fourteen” and the response (multiple myeloma; twenty-eight days post transplant, one patient) was “complete remission”. The effective skeletal half-life ([3]; 30 mCi diagnostic dose) was 19.9 ± 2.5 h, the “average percentage uptake in the skeleton” value ([3]; 30 mCi diagnostic dose, eight patients) was 28±12% and the “material present in the urine” value ([3]; 6 hours post injection) was “Approximately 50%”. For the same compound, the “injected dose remaining in whole blood” value ([3]; 24 hours post injection) was “a small percentage”, the “whole blood clearance early T1/2” value ([3]; biphasic clearance) was 3 ± 2.4 min and the “whole blood clearance late T1/2” value ([3]; biphasic clearance) was 11 ± 4 h. For the same compound, the “average red marrow dose” value ([3]; calculated by MIRD technique) was 1.97±0.92 cGy/mCi and the toxicity ([3]; therapy, target 22 Gy to red marrow, three patients) was “Other than severe hematological suppression, no toxicity was noted”.

From US7691985B2, “Skeletal-targeted radiation to treat bone-associated pathologies” (priority 1999, dated 2010)
